According to ChEMBL document CHEMBL5113398, “Design and synthesis of new quinoline derivatives as selective C-RAF kinase inhibitors with potent anticancer activity” (Eur J Med Chem, 2022):
Converted amounts (≈) assume the structure as drawn. One block for each compound: values may come before it.

How the values were obtained:
[1] = Aqueous solubility of compound by HPLC analysis; format: physicochemical
[2] = n-Octanol/PBS partition coefficient, logD of the compound at pH 7.4; format: physicochemical
[3] = Apparent permeability across apical to basolateral side in human Caco-2 cells assessed as drug recovery at pH 6.5 to 7.4; format: ADME, cell-based; conditions: Caco-2, pH 6.5, read-out: Drug recovery
[4] = Apparent permeability of the compound from apical to basolateral side in human Caco-2 cells at pH 6.5 to 7.4; format: ADME, cell-based; conditions: Caco-2, pH 6.5
MCF7 = assay: Anticancer activity against human MCF7 cells assessed as cell growth inhibition incubated for 48 hrs by SRB assay; format: functional
NCI-H322M = assay: Anticancer activity against human NCI-H322M cells assessed as cell growth inhibition incubated for 48 hrs by SRB assay; format: functional
[5] = Cytotoxicity against human WI-38 cells assessed as cell growth inhibition incubated for 48 hrs by SRB assay; format: toxicity, cell-based
NCI-H226 = assay: Anticancer activity against human NCI-H226 cells assessed as cell growth inhibition incubated for 48 hrs by SRB assay; format: functional
NCI-H23 [6] = assay: Anticancer activity against human NCI-H23 cells assessed as cell growth inhibition incubated for 48 hrs by SRB assay; format: functional
SK-OV-3 = assay: Anticancer activity against human SK-OV-3 cells assessed as cell growth inhibition incubated for 48 hrs by SRB assay; format: functional
CCRF-CEM = assay: Anticancer activity against human CCRF-CEM cells assessed as cell growth inhibition incubated for 48 hrs by SRB assay; format: functional
IGROV-1 [7] = assay: Anticancer activity against human IGROV-1 cells assessed as cell growth inhibition incubated for 48 hrs by SRB assay; format: functional
NCI-H23 [8] = assay: Anticancer activity against human NCI-H23 cells assessed as total cell growth inhibition incubated for 48 hrs by SRB assay; format: functional
SK-MEL-2 = assay: Anticancer activity against human SK-MEL-2 cells assessed as cell growth inhibition incubated for 48 hrs by SRB assay; format: functional
UACC-257 [9] = assay: Anticancer activity against human UACC-257 cells assessed as cell growth inhibition incubated for 48 hrs by SRB assay; format: functional
NCI-H460 = assay: Anticancer activity against human NCI-H460 cells assessed as cell growth inhibition incubated for 48 hrs by SRB assay; format: functional
ACHN [10] = assay: Anticancer activity against human ACHN cells assessed as cell growth inhibition incubated for 48 hrs by SRB assay; format: functional
MDA-MB-231 = assay: Anticancer activity against human MDA-MB-231 cells assessed as cell growth inhibition incubated for 48 hrs by SRB assay; format: functional
SK-MEL-28 = assay: Anticancer activity against human SK-MEL-28 cells assessed as cell growth inhibition incubated for 48 hrs by SRB assay; format: functional
EKVX = assay: Anticancer activity against human EKVX cells assessed as cell growth inhibition incubated for 48 hrs by SRB assay; format: functional
PC-3 = assay: Anticancer activity against human PC-3 cells assessed as cell growth inhibition incubated for 48 hrs by SRB assay; format: functional
ACHN [11] = assay: Anticancer activity against human ACHN cells assessed as total cell growth inhibition incubated for 48 hrs by SRB assay; format: functional
UACC-257 [12] = assay: Anticancer activity against human UACC-257 cells assessed as total cell growth inhibition incubated for 48 hrs by SRB assay; format: functional
TK-10 [13] = assay: Anticancer activity against human TK-10 cells assessed as total cell growth inhibition incubated for 48 hrs by SRB assay; format: functional
NCI-H522 = assay: Anticancer activity against human NCI-H522 cells assessed as cell growth inhibition incubated for 48 hrs by SRB assay; format: functional
HL-60 = assay: Anticancer activity against human HL-60 cells assessed as total cell growth inhibition incubated for 48 hrs by SRB assay; format: functional
COLO 205 = assay: Anticancer activity against human COLO 205 cells assessed as cell growth inhibition incubated for 48 hrs by SRB assay; format: functional
MDA-MB-468 [14] = assay: Anticancer activity against human MDA-MB-468 cells assessed as cell growth inhibition incubated for 48 hrs by SRB assay; format: functional
IGROV-1 [15] = assay: Anticancer activity against human IGROV-1 cells assessed as total cell growth inhibition incubated for 48 hrs by SRB assay; format: functional
A498 = assay: Anticancer activity against human A498 cells assessed as cell growth inhibition incubated for 48 hrs by SRB assay; format: functional
HOP-92 = assay: Anticancer activity against human HOP-92 cells assessed as total cell growth inhibition incubated for 48 hrs by SRB assay; format: functional
NCI/ADR-RES = assay: Anticancer activity against human NCI/ADR-RES cells assessed as cell growth inhibition incubated for 48 hrs by SRB assay; format: functional
HCT-15 = assay: Anticancer activity against human HCT-15 cells assessed as cell growth inhibition incubated for 48 hrs by SRB assay; format: functional
HT-29 = assay: Anticancer activity against human HT-29 cells assessed as cell growth inhibition incubated for 48 hrs by SRB assay; format: functional
MOLT-4 = assay: Anticancer activity against human MOLT-4 cells assessed as total cell growth inhibition incubated for 48 hrs by SRB assay; format: functional
Malme-3M = assay: Anticancer activity against human Malme-3M cells assessed as cell growth inhibition incubated for 48 hrs by SRB assay; format: functional
MDA-MB-468 [16] = assay: Anticancer activity against human MDA-MB-468 cells assessed as total cell growth inhibition incubated for 48 hrs by SRB assay; format: functional
SW-620 = assay: Anticancer activity against human SW-620 cells assessed as cell growth inhibition incubated for 48 hrs by SRB assay; format: functional
U-251 = assay: Anticancer activity against human U-251 cells assessed as cell growth inhibition incubated for 48 hrs by SRB assay; format: functional
HOP-62 = assay: Anticancer activity against human HOP-62 cells assessed as cell growth inhibition incubated for 48 hrs by SRB assay; format: functional
SN12C = assay: Anticancer activity against human SN12C cells assessed as cell growth inhibition incubated for 48 hrs by SRB assay; format: functional
M14 = assay: Anticancer activity against human M14 cells assessed as cell growth inhibition incubated for 48 hrs by SRB assay; format: functional
TK-10 [17] = assay: Anticancer activity against human TK-10 cells assessed as cell growth inhibition incubated for 48 hrs by SRB assay; format: functional
UO-31 = assay: Anticancer activity against human UO-31 cells assessed as cell growth inhibition incubated for 48 hrs by SRB assay; format: functional
SF-268 = assay: Anticancer activity against human SF-268 cells assessed as cell growth inhibition incubated for 48 hrs by SRB assay; format: functional

solubility [1]: 114 µM (≈ 66.9 µg/mL)
Structure (SMILES): COc1cc2cc(Oc3ccc(NC(=O)Nc4ccc(Cl)c(C(F)(F)F)c4)cc3)c(C)nc2cc1OCCN(C)C

solubility [1]: 175 µM (≈ 144 µg/mL)
logD [2]: 1.31
Structure (SMILES): CO[C@H]1/C=C/O[C@@]2(C)Oc3c(C)c(O)c4c(O)c(c(/C=N/N5CCN(C)CC5)c(O)c4c3C2=O)NC(=O)/C(C)=C\C=C\[C@H](C)[C@H](O)[C@@H](C)[C@@H](O)[C@@H](C)[C@H](OC(C)=O)[C@@H]1C [RIFAMPIN]

recovery [3]: 91%
Papp A→B [4]: 72 ×10⁻⁶ cm/s
Structure (SMILES): CC(CCc1ccccc1)NCC(O)c1ccc(O)c(C(N)=O)c1 (stereo unspecified) [LABETALOL]

Structure (SMILES): COc1cc2c(c(OC)c1OC)-c1ccc(OC)c(=O)cc1[C@@H](NC(C)=O)CC2 [COLCHICINE]
recovery [3]: 75.5%
Papp A→B [4]: 0.3 ×10⁻⁶ cm/s

logD [2]: 4.45
Structure (SMILES): CCC(C)(C)C(=O)O[C@H]1C[C@@H](C)C=C2C=C[C@H](C)[C@H](CC[C@@H]3C[C@@H](O)CC(=O)O3)[C@H]21 [SIMVASTATIN]

GI50 (MCF7): 2510 nM
GI50 (NCI-H322M): 2510 nM
GI50 (NCI-H226): 2000 nM
GI50 (NCI-H23 [6]): 2000 nM
GI50 (SK-OV-3): 2510 nM
GI50 (CCRF-CEM): 2000 nM
GI50 (SK-MEL-2): 2000 nM
GI50 (NCI-H460): 2510 nM
GI50 (ACHN [10]): 2510 nM
GI50 (MDA-MB-231): 1260 nM
GI50 (SK-MEL-28): 2510 nM
GI50 (PC-3): 2000 nM
GI50 (NCI-H522): 2000 nM
GI50 (COLO 205): 2000 nM
GI50 (MDA-MB-468 [14]): 3160 nM
solubility [1]: 3.27 µM (≈ 1.52 µg/mL)
Papp A→B [4]: 16.4 ×10⁻⁶ cm/s
GI50 (HCT-15): 2510 nM
GI50 (HT-29): 2000 nM
logD [2]: 3.85
GI50 (SW-620): 2510 nM
GI50 (U-251): 2000 nM
Structure (SMILES): CNC(=O)c1cc(Oc2ccc(NC(=O)Nc3ccc(Cl)c(C(F)(F)F)c3)cc2)ccn1 [SORAFENIB]
GI50 at 48 h [5]: > 20000 nM
GI50 (IGROV-1 [7]): 2510 nM
TGI (NCI-H23 [8]): 5010 nM
GI50 (UACC-257 [9]): 2000 nM
GI50 (EKVX): 2510 nM
TGI (ACHN [11]): 10000 nM
TGI (UACC-257 [12]): 5010 nM
TGI (TK-10 [13]): 10000 nM
TGI (HL-60): 100000 nM
TGI (IGROV-1 [15]): 10000 nM
GI50 (A498): 2510 nM
TGI (HOP-92): 5010 nM
GI50 (NCI/ADR-RES): 2510 nM
TGI (MOLT-4): 100000 nM
GI50 (Malme-3M): 2000 nM
TGI (MDA-MB-468 [16]): 7940 nM
GI50 (HOP-62): 2000 nM
GI50 (SN12C): 2510 nM
GI50 (M14): 2000 nM
GI50 (TK-10 [17]): 3980 nM
GI50 (UO-31): 2510 nM
GI50 (SF-268): 2510 nM

solubility [1]: 93.1 µM (≈ 23.5 µg/mL)
Structure (SMILES): O=C1NC(=O)C(c2ccccc2)(c2ccccc2)N1 [PHENYTOIN]

recovery [3]: 82%
Structure (SMILES): CNC(=C[N+](=O)[O-])NCCSCc1ccc(CN(C)C)o1 [RANITIDINE]

solubility [1]: 212 µM (≈ 120 µg/mL)
logD [2]: 3.1
Structure (SMILES): COc1cc2cc(Oc3ccc(NC(=O)Nc4cc(C(F)(F)F)cc(C(F)(F)F)c4)cc3)c(C)nc2cc1OC
